Assays:
hBPGM = hBPGM (Homo sapiens (Human), UniProt P07738); experiment: BPGM Synthase Assay; type: biochemical; conditions: Table 6 additional results; read-out: huBPGM: synthase Enzyme IC50
Method in brief: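 BPGM (5 nM) with GAPDH (0.4 U/mL) was incubated with compound for 30 min at RT in pH 7.4 Tris buffer with 3.23 mM KH2PO4 and 1 mM DTT. Reaction ran 60 min with NAD, 3PG and GAP (substrate solution 2 mM, 20 μM and 800 μM). After koningic acid stop, NADH fluorescence was read, then resorufin from diaphorase/resazurin coupling.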

[1] = target: human Bisphosphoglycerate mutase (hBPGM) (Homo sapiens (Human), UniProt P07738); experiment: BPGM Phosphatase Assay; type: biochemical; conditions: Table 6 additional results; read-out: huBPGM: phosphatase Enzyme EC50
Method: Solutions of the test compounds were then added to the plate and the DMSO content was normalized across the plate. The plate was incubated at RT for 15 min. Next, the substrate 2,3-BPG (5 μL) was added to all the wells, and the plate was sealed and incubated for 24 hr at RT. After incubation, BIOMOL green dye (40 μL) was added to all the wells, the plate was shaken to mix, and the plate was incubated at RT for 20-30 min.

Chain of human Bisphosphoglycerate mutase (hBPGM) (P07738 whole entry): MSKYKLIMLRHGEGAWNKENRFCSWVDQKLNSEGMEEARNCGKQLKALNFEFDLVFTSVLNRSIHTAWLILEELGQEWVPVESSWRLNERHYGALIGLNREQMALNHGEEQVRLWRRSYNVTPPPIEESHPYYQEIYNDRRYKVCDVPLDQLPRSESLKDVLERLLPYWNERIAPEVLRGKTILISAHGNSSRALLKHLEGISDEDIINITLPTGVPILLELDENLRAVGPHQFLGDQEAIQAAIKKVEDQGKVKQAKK
Chain of hBPGM (P07738 whole entry, looked up): as the sequence (P07738 whole entry) above

Row | Structure (SMILES) | IC50 (hBPGM) [nM] | EC50 [1] [nM]
1 | Cc1nc(CNC(=O)c2cccc(C#N)n2)sc1-c1csc(-c2cc(O)c(C(=O)O)cc2F)n1 [Example 180] | 28 | 20
2 | Cc1nc(CNC(=O)C2CCCC2)sc1-c1csc(-c2cc(O)c(C(=O)O)cc2F)n1 [Example 222] | 110 | 130
3 | Cc1nc(CNC2CCC2)sc1-c1csc(-c2cc(O)c(C(=O)O)cc2F)n1 [Example 186] | 380 | 30
4 | Cc1nc(CNC(=O)C2CC2)sc1-c1csc(-c2cc(O)c(C(=O)O)cc2F)c1 [Example 233] | 78 | 110
5 | Cc1nc(COc2ncccn2)sc1-c1cccc(-c2ccc(C(=O)O)s2)n1 [Example 88] | 1000 | 12000
6 | Cc1nc(CNC(=O)C(C)(C)C)sc1-c1cccc(-c2ccc(C(=O)O)cc2)c1 [Example 73] | 2200 | > 25000
7 | COC(=O)NCc1nc(C)c(-c2cc(-c3cc(O)c(C(=O)O)cc3F)sn2)s1 [Example 168] | 370 | 530
8 | COC(=O)NCc1nc(C)c(-c2csc(-c3cc(O)c(C(=O)O)cc3F)n2)s1 [Example 209] | 250 | 470
9 | Cc1nc(CN)sc1-c1csc(-c2cc(O)c(C(=O)O)cc2F)c1 [Example 251] | 270 | 400
10 | Cc1nc(COc2ncccn2)sc1-c1cccc(-c2ccc(C(=O)O)cc2)n1 [Example 95] | 280 | 2100
11 | COC(=O)NCc1nc(C)c(-c2nsc(-c3ccc(C(=O)O)c(O)c3)n2)s1 [Example 193] | 170 | 360
12 | Cc1nc(Cn2cccn2)sc1-c1csc(-c2cc(O)c(C(=O)O)cc2F)c1 [Example 229] | 190 | 30
13 | Cc1nc(COCC(N)=O)sc1-c1csc(-c2cc(O)c(C(=O)O)cc2F)n1 [Example 156] | 350 | 1500
14 | COC(=O)NCc1nc(C)c(-c2ccnc(-c3cc(O)c(C(=O)O)cc3F)n2)s1 [Example 155] | 310 | > 25000
15 | Cc1nc(C)c(-c2cc(-c3cc(O)c(C(=O)O)cc3F)sn2)s1 [Example 183] | 660 | 280
16 | Cc1nc(Cn2c(C#N)cccc2=O)sc1-c1cccc(-c2ccc(C(=O)O)c(O)c2)c1 [Example 103] | 950 | 130
17 | Cc1nc(COc2ccnn2C)sc1-c1csc(-c2cc(O)c(C(=O)O)cc2F)n1 [Example 218] | 130 | 170
18 | Cc1nc(C)c(-c2csc(-c3ccc(C(=O)O)c(O)c3)n2)s1 [Example 184] | 1500 | 80
19 | Cc1nc(CNCC(C)(C)C)sc1-c1csc(-c2cc(O)c(C(=O)O)cc2F)n1 [Example 147] | 610 | 50
20 | Cc1nc(CNC(=O)c2cccnn2)sc1-c1cccc(-c2ccc(C(=O)O)c(O)c2)n1 [Example 148] | 250 | 280
21 | Cc1cccc(OCc2nc(C)c(-c3cccc(-c4ccc(C(=O)O)c(O)c4)c3)s2)n1 [Example 269] | 2000 | 270
22 | Cc1nc(C)c(-c2nsc(-c3cc(O)c(C(=O)O)c(F)c3F)n2)s1 [Example 134] | 1000 | 340

Row | Structure (SMILES) | IC50 (hBPGM) [nM] | EC50 [1] [nM]
23 | Cc1nc(CNC(=O)C(C)(C)C)sc1-c1csc(-c2cc(O)c(C(=O)O)cc2F)c1 [Example 139] | 84 | 90
24 | COC(=O)NCc1nc(C)c(-c2ccnc(-c3ccc(C(=O)O)c(O)c3)n2)s1 [Example 185] | 160 | 30
25 | Cc1nc(COc2cccc(N)n2)sc1-c1csc(-c2cc(O)c(C(=O)O)cc2F)n1 [Example 204] | 270 | 250
26 | Cc1nc(COc2ncccn2)sc1-c1cccc(-c2ccc(C(=O)O)c(C#N)c2)n1 [Example 78] | 180 | 70
27 | Cc1nc(COC(=O)N2CCCC2)sc1-c1csc(-c2cc(O)c(C(=O)O)cc2F)n1 [Example 154] | 170 | 40
28 | Cc1nc(Cc2ccccc2)sc1-c1csc(-c2cc(O)c(C(=O)O)cc2F)n1 [Example 182] | 560 | 50
29 | Cc1nc(Cc2ccccc2)sc1-c1csc(-c2cc(O)c(C(=O)O)cc2F)n1 [Example 165] | 240 | 40
30 | Cc1ccc(Cc2nc(C)c(-c3csc(-c4cc(O)c(C(=O)O)cc4F)c3)s2)cn1 [Example 98] | 170 | 100
31 | COC(=O)NCc1nc(C)c(-c2csc(-c3cc(O)c(C(=O)NCC(=O)NCC(=O)O)cc3F)n2)s1 [Example 119] | 340 | 1800
32 | Cc1nc(CNC(=O)c2cccnn2)sc1-c1cccc(-c2ccc(C(=O)O)cc2)c1 [Example 71] | 560 | > 25000
33 | Cc1nc(CNC(=O)C2CC2)sc1-c1csc(-c2ccc(C(=O)O)c(O)c2)c1 [Example 97] | 100 | 160
34 | COC(=O)NCc1nc(C)c(-c2csc(-c3ccc(C(=O)NS(=O)(=O)c4ccc(OCC(=O)O)cc4)cc3)n2)s1 [Example 66] | 61 | 110
35 | Cc1nc(Cc2ccccc2)sc1-c1cccc(-c2cc(O)c(C(=O)O)cc2F)n1 [Example 162] | 140 | 60
36 | COC(=O)NCc1nc(C)c(-c2csc(-c3ccc(C(=O)O)cc3F)n2)s1 [Example 238] | 1300 | > 25000
37 | Cc1nc(CNC(=O)c2ccccc2)sc1-c1csc(-c2cc(O)c(C(=O)O)cc2F)n1 [Example 212] | 160 | 100
38 | Cc1nc(Cc2cccnc2)sc1-c1cccc(-c2ccc(C(=O)O)cc2)c1 [Example 277] | 860 | 1100
39 | Cc1nc(CNC(=O)C(N)=O)sc1-c1csc(-c2cc(O)c(C(=O)O)cc2F)n1 [Example 202] | 120 | 150
40 | Cc1nc(Cn2cccn2)sc1-c1cccc(-c2cc(O)c(C(=O)O)cc2F)c1 [Example 262] | 530 | 510
41 | Cc1nc(C(C)NC(=O)C(C)(C)C)sc1-c1csc(-c2cc(O)c(C(=O)O)cc2F)n1 (centres unmarked) [Example 141] | 130 | 70
42 | Cc1nc(Cn2cccn2)sc1-c1csc(-c2cc(O)c(C(=O)O)cc2F)n1 [Example 248] | 110 | 110
43 | Cc1ccc(OCc2nc(C)c(-c3cccc(-c4ccc(C(=O)O)c(O)c4)c3)s2)nc1 [Example 82] | 1100 | 210
44 | Cc1nc(C)c(-c2nsc(-c3ccc(C(=O)O)c(O)c3)n2)s1 [Example 283] | 1300 | 6500

Row | Structure (SMILES) | IC50 (hBPGM) [nM] | EC50 [1] [nM]
45 | Cc1nc(CNC(=O)CN(C)C)sc1-c1csc(-c2cc(O)c(C(=O)O)cc2F)n1 [Example 120] | 500 | > 25000
46 | Cc1nc(C)c(-c2csc(-c3cc(O)c(C(=O)O)cc3F)n2)s1 [Example 285] | 320 | 400
47 | COC(=O)NCc1nc(C)c(-c2csc(-c3cc(O)c(C(=O)O)cn3)n2)s1 [Example 207] | 280 | 340
48 | Cc1nc(CNC2CCCOC2)sc1-c1cccc(-c2ccc(C(=O)O)cc2)c1 (centres unmarked) [Example 52] | 16000 | > 25000
49 | CC(=O)NCc1nc(C)c(-c2cccc(-c3ccc(C(=O)O)c(O)c3)c2)s1 [Example 278] | 900 | 2100
50 | Cc1nc(CNS(C)(=O)=O)sc1-c1csc(-c2cc(O)c(C(=O)O)cc2F)n1 [Example 224] | 260 | 300
51 | Cc1nc(CNC(=O)OC2CC2)sc1-c1csc(-c2cc(O)c(C(=O)O)cc2F)n1 [Example 215] | 95 | 55
52 | Cc1nc(C)c(-c2csc(-c3ccc(C(=O)O)c(O)c3)c2)s1 [Example 274] | 430 | 390
53 | Cc1nc(COc2ccccn2)sc1-c1csc(-c2cc(O)c(C(=O)O)cc2F)c1 [Example 146] | 460 | 50
54 | Cc1nc(Cc2cccnc2)sc1-c1cccc(-c2ccc(C(=O)O)c(O)c2)n1 [Example 237] | 140 | 170
55 | Cc1nc(COC(=O)N2CCN(C)CC2)sc1-c1csc(-c2cc(O)c(C(=O)O)cc2F)n1 [Example 118] | 180 | 130
56 | Cc1nc(Cc2cccnc2)sc1-c1csc(-c2cc(O)c(C(=O)O)cc2F)n1 [Example 228] | 87 | 55
57 | Cc1nc(CNC(=O)c2ccon2)sc1-c1csc(-c2cc(O)c(C(=O)O)cc2F)n1 [Example 152] | 67 | 40
58 | COCCOCCOCCOCc1nc(C)c(-c2csc(-c3ccc(C(=O)O)cc3)n2)s1 [Example 270] | 4600 | > 25000
59 | Cc1nc(COc2cnccn2)sc1-c1csc(-c2cc(O)c(C(=O)O)cc2F)n1 [Example 140] | 95 | 30
60 | Cc1nc(CN)sc1-c1csc(-c2ccc(C(=O)O)c(O)c2)c1 [Example 244] | 840 | > 25000
61 | Cc1nc(CNC(=O)CCN(C)C)sc1-c1csc(-c2cc(O)c(C(=O)O)cc2F)n1 [Example 115] | 670 | 180
62 | COC(=O)NC(C)c1nc(C)c(-c2csc(-c3cc(O)c(C(=O)O)cc3F)n2)s1 (centres unmarked) [Example 188] | 55 | 160
63 | Cc1nc(NCC(=O)N(C)C)sc1-c1csc(-c2cc(O)c(C(=O)O)cc2F)n1 [Example 178] | 200 | 3100
64 | Cc1nc(COc2ccccn2)sc1-c1cccc(-c2ccc(C(=O)O)c(O)c2)n1 [Example 128] | 190 | 79

Reference: patent US20230348450A1, “CARBOXYLIC ACID-CONTAINING COMPOUNDS AS MODULATORS OF BIS-PHOSPHOGLYCERATE MUTASE FOR THE TREATMENT OF SICKLE CELL DISEASE” (Genzyme Corporation, priority 2020, published 2023)
